Test results as given in patent publication US20090252717A1, “Compositions and Methods for Treating Polyglutamine-Expansion Neurodegenerative Diseases” (priority 2006, published 2009).
“Also recorded” adds a separate entry of the source.

How the values were obtained:
fast axonal transport [1] = assay: Vesicle motility assay in isolated squid axoplasm, perfusion of recombinant protein alone; format: cell-based, squid Loligo pealeii; settings: protein alone
Description: (§1) Recombinant Polypeptides. Wild-type androgen receptor and polyQ-AR polypeptides were produced by in vitro transcription/translation (TNT T7-Coupled Reticulocyte Lysate System; Promega, Madison, Wis.) according to manufacturer's protocols. Typically, 1.8 μg of plasmid was transcribed in 50 μl reaction mix. To assess protein levels, parallel reactions were performed incorporating ^35S-labeled methionine (Amersham) or quantitative immunoblots were performed. Protein concentrations were typically 0.2-0.5 nM. In vitro translated androgen receptor has been characterized and shown to be functional (Kuiper, et al. (1993) Biochem. J. 296(Pt 1):161-7). In vitro translation products were briefly centrifuged to eliminate translation machinery, and supernatants frozen in liquid N2 until used.
(§2) Genes encoding human wild-type Huntingtin (Htt) (i.e., Q20, residues 1-548; Szebenyi, et al. (2003) supra) and polyQ-expanded Htt (i.e., Q46, residues 1-949; Qin, et al. (2004) J. Neurosci. 24(1):269-81) were cloned into the pcDNA.3 vector and produced by in vitro transcription/translation as described for the androgen receptor. Alternatively, shorter constructs (Htt exon1) were expressed in E. coli as GST-tagged proteins.
(§3) Squid Axoplasm. Isolated squid axoplasm represents a unique experimental system to evaluate axonal-specific effects and pathogenic mechanisms. This model was instrumental in the original discovery of kinesin-1 (Brady (1985) Nature 317:73-75, novel pathways for fast axonal transport (Morfini, et al. (2002) supra; Morfini, et al. (2004) supra), and axonal-specific phosphorylation events (Grant & Pant (2000) J. Neurocytol. 29:843-72). Bidirectional membrane-bound organelle movements are observed with properties unchanged from intact axons for hours after removal of plasma membrane (Brady, et al. (1982) Science 218:1129-1131). Video-enhanced microscopic techniques allow quantitative analysis of membrane-bound organelle movement in fast axonal transport. Typical kinesin-dependent transport rates are 1.5-2.0 μm/s, whereas retrograde, cytoplasmic dynein-dependent rates are 1-1.3 μm/s in perfused axoplasms. These rates are maintained with little (<10%) or no reduction for >1 hour after perfusion with control buffer (Brady, et al. (1982) supra). The lack of permeability barriers allows perfusion of the axoplasm with a variety of effector molecules at known concentrations. Effectors of interest include nucleotides, pharmacological inhibitors, recombinant polypeptides, and antibodies. […]
(§4) Motility Studies in Isolated Axoplasm. […] Preparations were analyzed on a ZEISS AXIOMAT with a 100×, 1.3 n.a. objective, and DIC optics. […] Organelle velocities were measured with a Photonics Microscopy C2117 video manipulator (Hamamatsu).

kinesin-1 = assay: Kinesin-1 ATPase assay; format: biochemical, rat; settings: in vitro, up to equimolar levels of androgen receptor and kinesin-1
Description: Kinesin-1 ATPase Assays. Kinesin-1 basal and microtubule-activated ATPase activity was assayed according to known methods (Morfini, et al. (2002) supra; Tsai, et al. (2000) Mol. Biol. Cell 11:2161-2173). Briefly, purified rat brain kinesin and in vitro-translated androgen receptor constructs were incubated with or without TAXOL-stabilized MAP-free microtubules (1 mg/ml). Assays were started by addition of 1 mCi γ-^32P ATP (ICN Biochemicals, Costa Mesa, Calif.) and incubated for 25 minutes at 37° C. Reactions were stopped with 10% SDS and aliquots spotted on PEI-cellulose plates. Chromatograms were developed in 0.5 M LiCl/1 M formic acid and spots for ^32P and γ-^32P ATP counted to obtain percent of total ^32P recovered as free phosphate.

[2] = test system: polyQ-AR-induced inhibition of fast axonal transport; assay: Vesicle motility assay in isolated squid axoplasm, co-perfusion with polyQ-AR; format: cell-based, squid Loligo pealeii
Description: as §1
as §3, with “supra).” for “supra). The lack of permeability barriers allows perfusion of the axoplasm with a variety of effector molecules at known concentrations. Effectors of interest include nucleotides, pharmacological inhibitors, recombinant polypeptides, and antibodies.”
as §4

[3] = test system: polyQ-Htt-induced inhibition of fast axonal transport; assay: Vesicle motility assay in isolated squid axoplasm, co-perfusion with polyQ-Htt; format: cell-based, squid Loligo pealeii; settings: co-perfused with polyQ-Htt, concentration not given
Text: as §2
Squid Axoplasm. Isolated squid axoplasm represents a unique experimental system to evaluate axonal-specific effects and pathogenic mechanisms. This model was instrumental in the original discovery of kinesin-1 (Brady (1985) Nature 317:73-75, novel pathways for fast axonal transport (Morfini, et al. (2002) supra; Morfini, et al. (2004) supra), and axonal-specific phosphorylation events (Grant & Pant (2000) J. Neurocytol. 29:843-72). Bidirectional membrane-bound organelle movements are observed with properties unchanged from intact axons for hours after removal of plasma membrane (Brady, et al. (1982) Science 218:1129-1131). Video-enhanced microscopic techniques allow quantitative analysis of membrane-bound organelle movement in fast axonal transport. […]
Motility Studies in Isolated Axoplasm. […] Preparations were analyzed on a ZEISS AXIOMAT with a 100×, 1.3 n.a. objective, and DIC optics. […]

[4] = test system: 902-6 SH-SY5Y cells (polyQ-AR); assay: Neurite outgrowth of differentiated SH-SY5Y cells expressing polyQ-AR; format: cell-based, human
Description: (§5) SH-SY5Y Cell Culture and Pharmacological Inhibition. Androgen receptor constructs containing wild-type androgen receptor (Q20) and pathogenic androgen receptor (Q56) tracts were prepared and stably transfected into SH-SY5Y human neuroblastoma cells (Avila, et al. (2003) Exp. Biol. Med. (Maywood) 228:982-90). Wild-type and 902-6 cells (expressing both full-length polyQ-AR and a truncated N-terminal androgen receptor fragment (≈25 kD) that accumulated in cytoplasm) were grown and differentiated (Szebenyi, et al. (2003) supra). Cells were plated at densities of 10,000 cells/cm^2 on 10-cm tissue culture dishes for biochemical studies, and at 3000-5000 cells/cm^2 on 4-well tissue-tech chamber slides (Becton-Dickinson, Mountain View, Calif.) for immunocytochemistry and morphometric studies. For inhibitor studies, cells were differentiated with 10 μM retinoic acid in serum for 5-6 days, and then switched to serum-free medium supplemented with 25 ng/ml BDNF (Alomone Laboratories, Jerusalem, Israel) with or without SB203580 inhibitor. Cell morphologies were evaluated after 3 days in BDNF±SB203580 (Szebenyi, et al. (2003) supra).

[5] = test system: wild-type androgen receptor SH-SY5Y cells; assay: Neurite outgrowth of differentiated SH-SY5Y cells expressing wild-type androgen receptor; format: cell-based, human; settings: 10 μM
Description: as §5

[6] = test system: p38α, p38β, JNK2, and JNK3; settings: cited from earlier work
[7] = test system: neurofilament phosphorylation; assay: Neurofilament phosphorylation in squid axoplasm (immunoblot, SMI32); format: cell-based; settings: axoplasm incubated with protein
Description: Phosphorylation Studies in Squid Axoplasm. Three to four axoplasms were triturated in KB buffer (KB: 10 mM HEPES pH 7.4, 10 mM MgCl2, 1 mM DTT) and aliquoted. Individual reactions with corresponding in vitro-translated androgen receptor constructs were started by adding radiolabeled ATP to 100 μM. Reactions were done in 50 μl, incubated for 20 minutes at room temperature and stopped with 50 μl of 2× sample buffer. Lysates were separated by SDS-PAGE and analyzed by autoradiography. For certain indicated assays, 2 axoplasms per tube were incubated in X/2 buffer for 50 minutes with corresponding in vitro-translated androgen receptor construct, then 50 μl of 2× sample buffer was added and samples analyzed by immunoblot.

fast axonal transport [8] = settings: cited from earlier work
[9] = co-perfused with polyQ-AR, concentration not given

| Compound | mean fast axonal transport rate (fast axonal transport [1]; 20-30 minutes) [μm/sec] | mean fast axonal transport rate (fast axonal transport [1]; 40-50 minutes) [μm/sec] | effect on basal and microtubule-activated ATPase activity of kinesin-1 (kinesin-1) | effect on polyQ-AR-induced inhibition of fast axonal transport [2, 9] | effect on polyQ-Htt-induced inhibition of fast axonal transport [3] | further results |
| --- | --- | --- | --- | --- | --- | --- |
| wild-type androgen receptor: wild-type androgen receptor (Q20) produced by in vitro transcription/translation | 1.71±0.03 | 1.77±0.04 | not affected | – | – | – |
| C=C1[C@@H](O)[C@@H]2O[C@]3(CC[C@H](/C=C/[C@@H](C)[C@@H]4CC(C)=C[C@@]5(O[C@H](C[C@@](C)(O)C(=O)O)CC[C@H]5O)O4)O3)CC[C@H]2O[C@@H]1[C@@H](O)C[C@H](C)[C@H]1O[C@@]2(CCCCO2)CC[C@H]1C [okadaic acid] | – | – | – | failed to prevent polyQ-AR-induced fast axonal transport inhibition | – | – |
| CCSCc1ccc2c(c1)c1c3c(c4c5cc(CSCC)ccc5n5c4c1n2[C@H]1C[C@](O)(C(=O)OC)[C@]5(C)O1)CNC3=O [CEP-1347] | – | – | – | prevented the effects of polyQ-Htt and polyQ-AR on fast axonal transport | prevented the effects of polyQ-Htt and polyQ-AR on fast axonal transport | – |
| C[S+]([O-])c1ccc(-c2nc(-c3ccncc3)c(-c3ccc(F)cc3)[nH]2)cc1 (stereo not shown) [SB203580] | – | – | – | – | prevented the effects of polyQ-Htt on fast axonal transport | effect on polyQ-AR-induced inhibition of fast axonal transport ([2]; 10 μM co-perfused with polyQ-AR): completely blocked the inhibition of fast axonal transport in both anterograde and retrograde directions; proportion of cells with long neurites (>80 μm in length) ([4]; 10 μM or 20 μM): dramatic and dose-dependent increase in the proportion of cells that extended long neurites; also recorded: significant increase in the number of polyQ-AR cells extending long neurites; neurite length / outgrowth ([4]; 10 μM, 3 days BDNF): increasing neurite outgrowth; also recorded: increased in length; neurite length / morphology distribution ([4]; 20 μM, 3 days BDNF): nearly indistinguishable between wild-type and 902-6 cells; also recorded: indistinguishable from untreated wild-type androgen receptor cells; effect on inhibition of neurite outgrowth by polyQ-AR ([4]; added to culture media, 3 days BDNF): overcame inhibition of neurite outgrowth by polyQ-AR; also recorded: reverses inhibition of neurite formation by polyQ-AR; neurite outgrowth [5]: increasing neurite outgrowth; kinases inhibited [6]: inhibits p38α, p38β, JNK2, and JNK3 |
| polyQ-AR: polyglutamine-expanded androgen receptor (Q56) produced by in vitro transcription/translation | 1.25±0.03 | 1.08±0.02 | failed to affect either basal or microtubule-activated ATPase activity of kinesin-1 | – | – | SMI32 immunoreactivity [7]: reduced; level that inhibits fast axonal transport (fast axonal transport [8]): < 1 nM |
